Measurements reported in ChEMBL document CHEMBL1765060, “Synthesis, characterization, and biological evaluation of novel diclofenac prodrugs” (J Med Chem, 2011).

What was measured:
[1] = Metabolic stability in rat plasma assessed as compound remaining after 60 mins by HPLC analysis; assay type: ADME, cell-free; details: read-out: Stability
[2] = Metabolic stability in rat plasma assessed as compound remaining after 120 mins by HPLC analysis; assay type: ADME, cell-free; details: read-out: Stability
[3] = Metabolic stability in rat liver microsomes assessed as compound remaining after 30 mins by HPLC analysis; assay type: ADME, Microsome; details: read-out: Stability
[4] = Metabolic stability in rat liver microsomes assessed as compound remaining after 60 mins by HPLC analysis; assay type: ADME, Microsome; details: read-out: Stability
[5] = Aqueous solubility of the compound in acetate buffer at pH 5.5 by HPLC analysis
Rattus norvegicus [6] = assay: Antiinflammatory activity in Wistar rat assessed as inhibition of carrageenan-induced paw edema at 100 mg/kg, po administered 1 hr before carrageenan challenge measured after 180 mins; assay type: functional; design: scale not given: the % may be the effect or the level left
Rattus norvegicus [7] = assay: Gastrointestinal toxicity in Wistar rat assessed as ulcer index at 100 mg/kg, po; assay type: organism-based; design: dose 100 mg/kg, route oral; details: in vivo
Rattus norvegicus [8] = assay: Gastrointestinal toxicity in Wistar rat assessed as ulcer area of <1 mm diameter at 100 mg/kg, po; assay type: organism-based; design: dose 100 mg/kg, route oral; details: in vivo
[9] = buffer, pH 1
[10] = buffer, pH 3
[11] = buffer, pH 7.4
[12] = buffer, pH 9
physchem [13] = details: octanol/0.2 M phosphate buffer, pH 7.4
physchem [14] = details: octanol/0.1 M citric acid buffer, pH 3
Rattus norvegicus [15] = assay: Gastrointestinal toxicity in Wistar rat assessed as ulcer area of >3 mm diameter at 100 mg/kg, po; assay type: organism-based; design: dose 100 mg/kg, route oral; details: in vivo
Rattus norvegicus [16] = assay: Gastrointestinal toxicity in Wistar rat assessed as ulcer area of 1-3 mm diameter at 100 mg/kg, po; assay type: organism-based; design: dose 100 mg/kg, route oral; details: in vivo
Rattus norvegicus [17] = assay: Antiinflammatory activity in Wistar rat assessed as inhibition of carrageenan-induced paw edema at 50 mg/kg, po administered 1 hr before carrageenan challenge measured after 180 mins; assay type: functional; design: scale not given: the % may be the effect or the level left
Rattus norvegicus [18] = assay: Gastrointestinal toxicity in Wistar rat assessed as ulcer index at 50 mg/kg, po; assay type: organism-based; design: dose 50 mg/kg, route oral; details: in vivo
Rattus norvegicus [19] = assay: Gastrointestinal toxicity in Wistar rat assessed as ulcer area of <1 mm diameter at 50 mg/kg, po; assay type: organism-based; design: dose 50 mg/kg, route oral; details: in vivo
Rattus norvegicus [20] = assay: Gastrointestinal toxicity in Wistar rat assessed as ulcer area of 1-3 mm diameter at 50 mg/kg, po; assay type: organism-based; design: dose 50 mg/kg, route oral; details: in vivo
Rattus norvegicus [21] = assay: Gastrointestinal toxicity in Wistar rat assessed as ulcer area of >3 mm diameter at 50 mg/kg, po; assay type: organism-based; design: dose 50 mg/kg, route oral; details: in vivo

remaining at 1 h [1] | remaining at 2 h [2] | remaining at 0.5 h [3] | remaining at 1 h [4] | solubility [5] | solubility [9] | solubility [10] | solubility [11] | solubility [12] | logD (physchem [13]) | logD (physchem [14]) | Structure (SMILES) | Activity (Rattus norvegicus [6]) | UI (Rattus norvegicus [7]) | Activity (Rattus norvegicus [8]) | other results
0% | 0% | 2.5% | 0% | BLD | BLD | BLD | BLD | BLD | 3.72 | 4.08 | CC(C)(C)C(=O)OCOC(=O)Cc1ccccc1Nc1c(Cl)cccc1Cl | 56.33% | 6 | 100% | –
0% | 0% | 2.2% | 1.2% | BLD | BLD | BLD | BLD | BLD | 2.46 | 3.9 | CC(C)OC(=O)OCOC(=O)Cc1ccccc1Nc1c(Cl)cccc1Cl | 40.88% | 40 | 91.4% | Activity (Rattus norvegicus [15]): 5.71%; Activity (Rattus norvegicus [16]): 2.86%
0% | 0% | 0% | 0% | BLD | BLD | BLD | BLD | BLD | 4.57 | 4.33 | CC(=O)OCCOC(=O)Cc1ccccc1Nc1c(Cl)cccc1Cl | 47.51% | 8 | 100% | –
86.2% | 69.4% | 84.4% | 88.8% | – | – | – | – | – | – | – | O=C([O-])Cc1ccccc1Nc1c(Cl)cccc1Cl.[Na+] [DICLOFENAC SODIUM] | – | – | – | Activity (Rattus norvegicus [17]): 49.17%; UI (Rattus norvegicus [18]): 63; Activity (Rattus norvegicus [19]): 80%; Activity (Rattus norvegicus [20]): 14%; Activity (Rattus norvegicus [21]): 6%
